The data set is described as follows: Human HepG2 cell viability assay in 384 well format. It counts as toxicity, cell-based. Also noted: dose 125 nL, time 70.5 hour; concentration not given beside the values. The note with it: HepG2 cells, read-out: Inhibition.

`COCCC(=O)N1CC[C@@H](N(C)C)[C@@H]1Cc1ccccc1`: the cytotoxicity at 70.5 h is -3.88%.
Consider `O=C(c1ccncc1)N1CCCn2c(CN3CCCCC3)nnc2C1`, for which the cytotoxicity at 70.5 h was -8.6%.
On to `COCC1CN(C(=O)c2ccnnc2)Cc2c1cnn2C` (stereo unspecified), for which the cytotoxicity at 70.5 h was -1.23%.
For `COc1cccc(CC(=O)N2CCc3ncnc(NC(C)C)c3CC2)c1` the value was -14%; for `CN1C(=O)CC(c2cnn(C)c2)C12CCN(C(=O)C1CC=CC1)CC2` (stereo unspecified), -6.39%.
On to `O=C(c1ccoc1)N1CC[C@@H]2O[C@H](COCc3ccccn3)CC[C@@H]21`, for which the cytotoxicity at 70.5 h was -11.6%.
For the molecule `O=C(c1ccoc1)N1CCCn2cnc(COCC3CC3)c2C1`, the cytotoxicity at 70.5 h was -10.8%.
The same measure for `Cc1noc(C)c1CN1CC[C@H]2C[C@@H](c3nccs3)O[C@@H]2C1`: -14.7%; for `Cc1cc(CN2CC[C@H]3C[C@H](C)O[C@@H]3C2)no1`: -13.8%; for `c1ccc(CN2C[C@@H]3OCCN(CC4CCCO4)[C@@H]3C2)nc1` (stereo partly specified): -9.93%.
The same measure for `COc1cc(N2C[C@@H]3COC[C@]3(COc3ccc(C#N)cn3)C2)ncn1`: 7.01%; for `CN1CCN(c2ncnc3c2c(C(=O)NC2CC2)c2ccccn23)CC1`: 5.64%.
Turning to `O=C(C1CCOC1)N1CCc2ncc(CNc3ccccn3)n2CC1` (stereo unspecified), the cytotoxicity at 70.5 h turned out to be 0.605%.
Turning to `O=C(c1ccc(-c2cn[nH]c2)nc1)N1CCC(N2CCOCC2)CC1`, the cytotoxicity at 70.5 h was -3.67%.
For the molecule `CCc1ncc(CN2CCOC(Cc3cccc(F)c3)C2)cn1` (stereo unspecified), the cytotoxicity at 70.5 h is -9.07%.
For the molecule `O[C@@]1(CNCCOc2ccccc2)CCCN2CCCC[C@@H]21`, the cytotoxicity at 70.5 h came out at 28%.
Take `CN(Cc1nc(Cc2cccc(C(F)(F)F)c2)no1)CC1CCCCO1` (stereo unspecified): the cytotoxicity at 70.5 h is -11.5%.
With `COCCCN1C(=O)CC[C@H]2CN(c3ccc(C(N)=O)cn3)CC[C@H]21`, the cytotoxicity at 70.5 h came out at 4.03%.
On to `COc1ccc2[nH]cc(CCNC(=O)C3CCCN(C(C)=O)C3)c2c1` (stereo unspecified), for which the cytotoxicity at 70.5 h is -9.73%.
Take `Cn1cnnc1SCC(=O)NC1CC(=O)N(CCc2ccccc2)C1` (stereo unspecified): the cytotoxicity at 70.5 h was -8.79%.
Take `CCN(CC)C(=O)[C@@H]1C[C@@H](NC(=O)c2ccn(C(C)(C)C)c2)CN1C`: the cytotoxicity at 70.5 h was -4.81%.
For `Cc1cc(C)n(CCC(=O)N2CCCCC2c2nccs2)n1` (stereo unspecified), the cytotoxicity at 70.5 h was found to be 11.9%.
The same measure for `Cc1cc(CN(C)CC2(O)CCCN(CCC3CCCCC3)C2=O)no1` (stereo unspecified): 48.7%; for `O=C(O)c1cc(-c2cc[nH]n2)cc(S(=O)(=O)N2CCCCCC2)c1`: -4.16%; for `Cc1nonc1CN(C)Cc1c[nH]nc1-c1ccc(F)cc1F`: -14.1%.
On to `CCc1ncc(C(=O)N2C[C@@H](C)O[C@@H](C)C2)cn1`, for which the cytotoxicity at 70.5 h is -5%.
Consider `Cc1ccc(C(=O)N2CCC(n3cc(CN)nn3)CC2)cc1F`, for which the cytotoxicity at 70.5 h is -5.32%.
For `O=C(Cc1c[nH]c(=O)[nH]c1=O)N1CCC2(CCC(=O)N(C3CC3)C2)CC1` the value was 0.183%; for `CN(CCCc1cnn(C)c1)C(=O)Nc1cccc(C#N)c1`, -6.3%.
Turning to `Cn1ccnc1-c1nc2cc(S(=O)(=O)N3CCCC3)ccc2n1C`, the cytotoxicity at 70.5 h is -26.2%.
For the molecule `CCc1ccc(CN(C)C(=O)C2CC(=O)N(c3cccc(O)c3)C2)nc1` (stereo unspecified), the cytotoxicity at 70.5 h was -0.196%.
For `Cc1noc(C)c1CN(C)Cc1cnc(N2CCOCC2)nc1` the value was -4.31%; for `OCC1CCCCN1Cc1cc(O)c2cccc(F)c2n1` (stereo unspecified), 20.1%.
As to `O=S1(=O)C[C@@H]2[C@H](C1)N(Cc1cc(F)cc(Cl)c1)CCN2CCO`, the cytotoxicity at 70.5 h is -0.108%.
The same measure for `CCCc1nc(N2CCC(CCO)CC2)c2cnn(C)c2n1`: -2.39%; for `O=C(NCc1nnc2n1CCCC2)c1ccc(C2CCCO2)s1` (stereo unspecified): 18.3%.
On to `O=S1(=O)C[C@@H]2[C@H](C1)N(Cc1ccoc1)CCN2Cc1ccncc1`, for which the cytotoxicity at 70.5 h is -5.67%.
On to `CN1CCC(n2nc(Cc3cccc(Cl)c3)nc2Cn2cnnn2)CC1`, for which the cytotoxicity at 70.5 h stood at 27.5%.
`CNc1ncc(CN(C)C(=O)CCc2cc3n(n2)CCCNC3)cn1`: the cytotoxicity at 70.5 h is -9.14%.
As for `Cc1cnccc1N1CCN(C(=O)C2CC3(CCNCC3)CN2)CC1` (stereo unspecified), the cytotoxicity at 70.5 h was -5.99%.
In the case of `OCC1(O)CCCN(Cc2ccccc2OCCc2ccccc2)CC1` (stereo unspecified), the cytotoxicity at 70.5 h is -5.14%.
Regarding `CN(C)C[C@@H]1[C@H]2CN(C(=O)c3cc(=O)[nH]c4ccc(F)cc34)C[C@@H]12`, the cytotoxicity at 70.5 h amounted to 22.8%.
As to `CN(CCc1ccccc1)C(=O)c1cc(CN2CCC(O)CC2)on1`, the cytotoxicity at 70.5 h is -5.34%.
As for `COCCN(C)CCN1CC2(CCN(C3CCSC3)CC2)OC1=O` (stereo unspecified), the cytotoxicity at 70.5 h is -4.49%.
In the case of `O=C(O)C1CN(Cc2cccc(-c3ccccn3)c2)CCO1` (stereo unspecified), the cytotoxicity at 70.5 h is -9.06%.
Take `CC1(C)CNC(=O)c2nc(-c3n[nH]c(=O)[nH]3)[nH]c2C1`: the cytotoxicity at 70.5 h was -5.75%.
For `CCN(CC)C(=O)[C@@H]1C[C@@H](N)CN1C(=O)c1cc2c([nH]c1=O)CCC2` the value was -10.8%.
Turning to `O=C(c1cscn1)N1CC[C@]2(C[C@@H](OCCN3CCCC3)CO2)C1`, the cytotoxicity at 70.5 h was -6.54%.
Consider `Cc1cccc(COC[C@H]2CC[C@H]3[C@H](CCN3C(=O)CC3CC3)O2)n1`, for which the cytotoxicity at 70.5 h is -6.89%.
Consider `CCN1C(=O)CCC12CCCN(Cc1nccs1)CC2` (stereo unspecified), for which the cytotoxicity at 70.5 h is -8.57%.
Regarding `O=C1[C@H]2CN(Cc3nccs3)C[C@H]2CN1c1ccsc1`, the cytotoxicity at 70.5 h is -1.21%.
Consider `CO[C@H]1CN(C(=O)c2ccccn2)[C@@H]2CCCO[C@H]12`, for which the cytotoxicity at 70.5 h is -14.9%.
Consider `Cc1ccsc1C(=O)N1C[C@@H]2CN(Cc3ccoc3)CCO[C@@H]2C1`, for which the cytotoxicity at 70.5 h was -1.7%.
Regarding `CCOCC1CN(Cc2ccc(OC)cc2)Cc2nn(C)cc21` (stereo unspecified), the cytotoxicity at 70.5 h came to 25.5%.
Take `Cn1cc(N2CC3(COCCN(Cc4ccsc4)C3)OCC2=O)cn1` (stereo unspecified): the cytotoxicity at 70.5 h came out at 22.6%.
With `O=C1COC2(COCCN(Cc3ccsc3)C2)CN1c1ccc(F)cc1` (stereo unspecified), the cytotoxicity at 70.5 h was -2.28%.
Turning to `c1cncc(CN2CCc3ncnc(C4CCOC4)c3CC2)c1` (stereo unspecified), the cytotoxicity at 70.5 h amounted to 22.8%.
Consider `COCCN1C[C@@H]2CCCO[C@@H]2[C@H](N(C)Cc2ccco2)C1`, for which the cytotoxicity at 70.5 h was -2.22%.
Regarding `Cn1cc(C(=O)N2CC[C@@H]3[C@@H]2CCN3Cc2cccnc2)cn1`, the cytotoxicity at 70.5 h was -14.5%.
On to `c1cnc(N2CCC3(CCN(Cc4ccncc4)CC3)CC2)nc1`, for which the cytotoxicity at 70.5 h was -15.7%.
With `COc1cc(N2C[C@@H]3COC[C@]3(COCc3cccc(C)n3)C2)ncn1`, the cytotoxicity at 70.5 h was -0.577%.
For the molecule `COc1cccc(CN2C[C@@H]3COC[C@]3(COCc3ccncc3)C2)c1`, the cytotoxicity at 70.5 h is 5.79%.
As to `CCc1ccc(CN2CCN(C)c3ncccc3C2)o1`, the cytotoxicity at 70.5 h was determined as 24.1%.
For `Cc1ccc2c(n1)N(Cc1cccnc1)CCN(C(=O)C1CCC1)C2` the value was -12.9%; for `O=C(c1cccnc1)N1CCn2nnc(COc3cccnc3)c2C1`, -3.89%; for `Cc1ccc(N2CCO[C@H]3CN(Cc4ccncc4)C[C@H]32)nn1`, -8.56%.

For the origin of these results see ChEMBL document CHEMBL3507680, “University of Dundee, Gates Library screen for HepG2 cell viability”.
